Reference: ChEMBL document CHEMBL6092214, “Design, synthesis, and pharmacological characterization of sulfonylurea-based NLRP3 inhibitors: Towards an effective therapeutic strategy for Alzheimer's disease” (Eur J Med Chem, 2024)
Each block holds one compound with its values, some of them ahead of it. Calls of active or inactive are those of the source. No cut-off for these calls is given here.

How the values were obtained:
[1] = target: T1, NACHT, LRR and PYD domains-containing protein 3 (Homo sapiens, UniProt Q96P20); experiment: (§1) Inhibition of NLRP3 inflammasome activation in PMA-differentiated human THP-1 cells assessed as reduction in LPS/MSU-induced IL-1beta secretion preincubated with LPS for 3 hrs followed by compound addition for 30 mins prior to MSU addition and measured after 4 hrs by ELISA method; type: cell-based
T1 sequence (Q96P20 whole entry, the tested form may be a part): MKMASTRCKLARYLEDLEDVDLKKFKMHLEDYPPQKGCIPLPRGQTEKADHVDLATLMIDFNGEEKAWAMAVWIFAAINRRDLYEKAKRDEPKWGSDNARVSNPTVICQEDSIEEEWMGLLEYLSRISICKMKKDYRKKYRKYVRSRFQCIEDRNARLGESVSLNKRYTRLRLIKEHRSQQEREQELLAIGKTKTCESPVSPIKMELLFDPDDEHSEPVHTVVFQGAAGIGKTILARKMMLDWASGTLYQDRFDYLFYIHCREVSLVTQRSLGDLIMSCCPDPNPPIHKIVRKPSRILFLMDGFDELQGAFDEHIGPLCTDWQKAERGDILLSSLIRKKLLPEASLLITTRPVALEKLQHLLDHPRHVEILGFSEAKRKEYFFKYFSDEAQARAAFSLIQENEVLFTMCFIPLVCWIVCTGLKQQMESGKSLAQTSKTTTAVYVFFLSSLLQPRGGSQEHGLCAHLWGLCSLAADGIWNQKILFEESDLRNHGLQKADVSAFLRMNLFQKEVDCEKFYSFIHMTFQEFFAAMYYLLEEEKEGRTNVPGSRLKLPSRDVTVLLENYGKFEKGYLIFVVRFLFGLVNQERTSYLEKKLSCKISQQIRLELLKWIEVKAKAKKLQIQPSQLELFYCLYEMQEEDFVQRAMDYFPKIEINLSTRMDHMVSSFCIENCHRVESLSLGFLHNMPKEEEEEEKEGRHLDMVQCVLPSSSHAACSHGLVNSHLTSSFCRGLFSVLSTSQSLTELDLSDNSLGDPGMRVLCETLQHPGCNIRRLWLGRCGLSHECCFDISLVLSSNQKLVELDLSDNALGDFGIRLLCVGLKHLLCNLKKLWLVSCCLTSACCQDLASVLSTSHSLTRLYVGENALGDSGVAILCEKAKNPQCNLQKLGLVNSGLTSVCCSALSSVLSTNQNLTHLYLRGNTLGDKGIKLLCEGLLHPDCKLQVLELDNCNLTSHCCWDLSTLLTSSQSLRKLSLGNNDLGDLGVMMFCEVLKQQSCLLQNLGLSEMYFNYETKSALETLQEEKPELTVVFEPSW

[2] = target: NACHT, LRR and PYD domains-containing protein 3 (Mus musculus) (UniProt Q8R4B8); experiment: Inhibition of NLRP3 inflammasome activation in mouse BMDM cells assessed as effect on LPS/Nigericin induced NLRP3 expression level at 10 to 40 nM by Western blot analysis; type: cell-based; settings: dose 10-40 nM
Chain of NACHT, LRR and PYD domains-containing protein 3 (Mus musculus) (Q8R4B8 whole entry, the tested form may be a part): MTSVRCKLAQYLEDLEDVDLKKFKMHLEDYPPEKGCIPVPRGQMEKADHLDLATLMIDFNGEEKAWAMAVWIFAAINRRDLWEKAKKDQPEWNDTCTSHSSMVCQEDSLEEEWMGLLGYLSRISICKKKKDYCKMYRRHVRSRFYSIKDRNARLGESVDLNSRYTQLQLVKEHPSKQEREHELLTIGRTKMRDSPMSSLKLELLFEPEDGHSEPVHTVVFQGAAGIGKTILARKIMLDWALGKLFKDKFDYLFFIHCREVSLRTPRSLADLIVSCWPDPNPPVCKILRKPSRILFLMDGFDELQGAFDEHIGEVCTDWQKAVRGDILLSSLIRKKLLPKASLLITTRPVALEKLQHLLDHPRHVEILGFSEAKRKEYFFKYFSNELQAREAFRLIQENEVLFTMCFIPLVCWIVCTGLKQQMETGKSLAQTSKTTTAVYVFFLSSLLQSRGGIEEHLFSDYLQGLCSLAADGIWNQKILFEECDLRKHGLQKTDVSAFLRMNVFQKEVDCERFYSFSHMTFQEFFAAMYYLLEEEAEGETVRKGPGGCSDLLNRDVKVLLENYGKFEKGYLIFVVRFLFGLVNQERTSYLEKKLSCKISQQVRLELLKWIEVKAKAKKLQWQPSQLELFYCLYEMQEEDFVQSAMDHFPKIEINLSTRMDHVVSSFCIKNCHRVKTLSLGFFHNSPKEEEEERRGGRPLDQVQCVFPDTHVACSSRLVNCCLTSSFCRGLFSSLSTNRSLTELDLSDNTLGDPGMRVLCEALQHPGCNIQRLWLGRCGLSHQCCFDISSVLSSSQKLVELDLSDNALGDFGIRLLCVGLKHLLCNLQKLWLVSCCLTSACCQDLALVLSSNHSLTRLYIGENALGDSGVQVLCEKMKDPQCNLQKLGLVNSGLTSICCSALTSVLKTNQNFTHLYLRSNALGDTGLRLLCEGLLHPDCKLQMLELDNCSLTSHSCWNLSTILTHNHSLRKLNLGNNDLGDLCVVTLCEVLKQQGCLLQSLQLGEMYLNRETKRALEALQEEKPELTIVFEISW

[3] = target: T1, NACHT, LRR and PYD domains-containing protein 3; experiment: as §1, with “LPS/Nigericin-induced” for “LPS/MSU-induced”, “secretion at 30 nM” for “secretion”, “nigericin” for “MSU”, “30 mins” for “4 hrs”; type: cell-based; settings: time 1.0 hrs
[4] = Hepatotoxicity in mouse assessed as effect on ALT level at 10 mg/kg measured after 30 days; type: toxicity, organism-based; settings: in vivo, 720 h, time 30 day
[5] = target: T1, NACHT, LRR and PYD domains-containing protein 3; experiment: Binding affinity to NLRP3 (unknown origin) assessed as dissociation constant by Surface Plasmon Resonance analysis
[6] = target: T1, NACHT, LRR and PYD domains-containing protein 3; experiment: Inhibition of NLRP3 inflammasome activation in LPS/Nigericin induced PMA-differentiated human THP-1 cells assessed as effect on mitochondrial membrane potential by Mitotracker staining based immunofluorescence analysis; type: cell-based
[7] = target: T1, NACHT, LRR and PYD domains-containing protein 3; experiment: Inhibition of NLRP3 inflammasome activation in LPS/Nigericin induced PMA-differentiated human THP-1 cells assessed as effect on ROS production by measuring red fluorescence by MitoSOX staining based immunofluorescence analysis; type: cell-based
HEK293 = experiment: Cytotoxicity against HEK293 cells assessed as cell viability at 0.39 to 100 uM incubated for 24 hrs by CCK-8 method; type: toxicity, cell-based; settings: human, hek293, 24 h, dose 0.39-100 µM
[8] = target: NACHT, LRR and PYD domains-containing protein 3 (Mus musculus) (UniProt Q8R4B8); experiment: Inhibition of NLRP3 inflammasome activation in mouse BMDM cells assessed as effect on LPS/Nigericin induced NEK7 expression level at 10 to 40 nM by Western blot analysis; type: cell-based; settings: dose 10-40 nM
Mus musculus [9] = experiment: Anti-aging activity in […] AD mouse model assessed as reduction in beta-galactosidase level at 10 mg/kg administered via gavage daily for 30 days; type: functional, organism-based; settings: time 30.0 day
Mus musculus [10] = experiment: Anti-aging activity in […] AD mouse model assessed as upregulation of IGF-1 expression at 10 mg/kg administered via gavage daily for 30 days; type: functional, organism-based; settings: time 30.0 day
[11] = target: NACHT, LRR and PYD domains-containing protein 3 (Mus musculus) (UniProt Q8R4B8); experiment: Inhibition of NLRP3 inflammasome activation in mouse BMDM cells assessed as decrease in LPS/Nigericin induced IL-1 beta level by Western blot analysis; type: cell-based; settings: dose 10-40 nM
[12] = target: NACHT, LRR and PYD domains-containing protein 3 (Mus musculus) (UniProt Q8R4B8); experiment: Inhibition of NLRP3 inflammasome activation in mouse BMDM cells assessed as decrease in LPS/Nigericin induced caspase-1 level by Western blot analysis; type: cell-based; settings: dose 10-40 nM
[13] = target: NACHT, LRR and PYD domains-containing protein 3 (Mus musculus) (UniProt Q8R4B8); experiment: Inhibition of NLRP3 inflammasome activation in mouse BMDM cells assessed as effect on LPS/Nigericin induced pro-IL-1beta expression level at 10 to 40 nM by Western blot analysis; type: cell-based; settings: dose 10-40 nM
Mus musculus [14] = experiment: Locomotor activity in mouse assessed as effect on total distance traveled at 30 mg/kg measured for 1.5 hrs by Open field test; type: functional, organism-based
[15] = target: T1, NACHT, LRR and PYD domains-containing protein 3; experiment: as §1, with “LPS/Nigericin-induced” for “LPS/MSU-induced”, “secretion at 3 nM” for “secretion”, “nigericin” for “MSU”, “30 mins” for “4 hrs”, “method relative to control” for “method”; type: cell-based; settings: time 1.0 hrs
Mus musculus [16] = organism: Mus musculus; experiment: Neuroprotective activity against scopolamine-induced cognitive impairment in AD mouse model assessed as reduction in escape latency by Morris water maze test; type: functional, organism-based; settings: dose 5-30 mg/kg
[17] = Hepatotoxicity in mouse assessed as effect on AST level at 10 mg/kg measured after 30 days; type: toxicity, organism-based; settings: in vivo, 720 h, time 30 day
[18] = target: T1, NACHT, LRR and PYD domains-containing protein 3; experiment: as §1, with “LPS/ATP-induced” for “LPS/MSU-induced”, “secretion at 3 nM” for “secretion”, “ATP” for “MSU”, “30 mins” for “4 hrs”, “method relative to control” for “method”; type: cell-based; settings: time 1.0 hrs
[19] = target: NACHT, LRR and PYD domains-containing protein 3 (Mus musculus) (UniProt Q8R4B8); experiment: Inhibition of NLRP3 inflammasome activation in mouse BMDM cells assessed as effect on LPS/Nigericin induced procaspase-1 expression level at 10 to 40 nM by Western blot analysis; type: cell-based; settings: dose 10-40 nM
[20] = target: T1, NACHT, LRR and PYD domains-containing protein 3; experiment: Inhibition of NLRP3 inflammasome activation in PMA-differentiated human THP-1 cells assessed as reduction in LPS/ATP-induced IL-1beta secretion at 30 nM preincubated with LPS for 3 hrs followed by compound addition for 30 mins prior to ATP addition and measured after 30 mins by ELISA method; type: cell-based; settings: time 1.0 hrs
[21] = target: NACHT, LRR and PYD domains-containing protein 3 (Mus musculus) (UniProt Q8R4B8); experiment: Inhibition of NLRP3 inflammasome activation in mouse BMDM cells assessed as effect on LPS/Nigericin induced ASC expression level at 10 to 40 nM by Western blot analysis; type: cell-based; settings: dose 10-40 nM
Mus musculus [22] = experiment: Neuroprotective activity against scopolamine-induced cognitive impairment in AD mouse model assessed as reduction in escape latency at 10 mg/kg administered daily by Morris water maze test; type: functional, organism-based

IC50 [1]: 27 nM
SMILES: CC(C)(O)c1coc(S(=O)(=O)NC(=O)Nc2c(-c3ccnc(F)c3)ccc3c2CCC3)c1

IC50 [1]: 76 nM
SMILES: Cc1cccc(-c2ccc3c(c2NC(=O)NS(=O)(=O)c2cc(C(C)(C)O)co2)CCC3)c1

IC50 [1]: 212 nM
SMILES: O=C(Nc1c(-c2ccc([N+](=O)[O-])cc2)ccc2c1CCC2)NS(=O)(=O)c1cccc(Br)n1

IC50 [1]: > 1000 nM
SMILES: COc1cccc(OC)c1-c1ccc2c(c1NC(=O)NS(=O)(=O)c1cc(C(C)(C)O)co1)CCC2

IC50 [1]: > 1000 nM
SMILES: O=C(Nc1c(-c2ccc([N+](=O)[O-])cc2)ccc2c1CCC2)NS(=O)(=O)c1cccnc1

IC50 [1]: 72 nM
SMILES: CCOc1ccc2cc(-c3ccc4c(c3NC(=O)NS(=O)(=O)c3cc(C(C)(C)O)co3)CCC4)ccc2c1

IC50 [1]: > 1000 nM
SMILES: CCCCc1ccc(-c2ccc3c(c2NC(=O)NS(=O)(=O)c2cc(C(C)(C)O)co2)CCC3)cc1

IC50 [1]: > 1000 nM
SMILES: CCCCNS(=O)(=O)c1cccc(-c2ccc3c(c2NC(=O)NS(=O)(=O)c2cc(C(C)(C)O)co2)CCC3)c1

IC50 [1]: > 1000 nM
SMILES: O=C(Nc1c(-c2ccc([N+](=O)[O-])cc2)ccc2c1CCC2)NS(=O)(=O)c1cc(Br)cs1

IC50 [1]: 260 nM
SMILES: CN[C@H]1COc2c(S(=O)(=O)NC(=O)Nc3c(-c4ccc([N+](=O)[O-])cc4)ccc4c3CCC4)cnn2C1

IC50 [1]: > 1000 nM
SMILES: O=C(Nc1c(-c2ccc([N+](=O)[O-])cc2)ccc2c1CCC2)NS(=O)(=O)CC1CCCCC1

IC50 [1]: 6 nM
SMILES: CC(C)(O)c1coc(S(=O)(=O)NC(=O)Nc2c(-c3ccc([N+](=O)[O-])cc3)ccc3c2CCC3)c1

IC50 [1]: > 1000 nM
SMILES: O=C(Nc1c(-c2ccc([N+](=O)[O-])cc2)ccc2c1CCC2)NS(=O)(=O)N1CCCC1

IC50 [1]: 54 nM
SMILES: O=C(Nc1c(-c2ccc([N+](=O)[O-])cc2)ccc2c1CCC2)NS(=O)(=O)c1cccs1

IC50 [1]: > 1000 nM
SMILES: CC(C)(C)c1cc(-c2ccc3c(c2NC(=O)NS(=O)(=O)c2cc(C(C)(C)O)co2)CCC3)cc(C(C)(C)C)c1

inhibition [2]: inactive | Kd [5]: 19.3 nM | IC50 [1]: 12 nM | inhibition [6]: inactive | inhibition [7]: inactive | inhibition [8]: inactive | inhibition [11]: Dose-dependent-effect | inhibition [12]: Dose-dependent-effect | inhibition [13]: inactive | inhibition [15]: > 50% | inhibition [18]: > 50% | inhibition [19]: inactive | inhibition [21]: inactive
SMILES: CC(C)(O)c1csc(S(=O)(=O)NC(=O)Nc2c(-c3ccc([N+](=O)[O-])cc3)ccc3c2CCC3)c1
inhibition [3]: Active; Compound Nearly Abolished Il-1 Beta Secretion | Activity [4]: Non-toxic | Activity (HEK293): Non-toxic | Activity (Mus musculus [9]): Active | Activity (Mus musculus [10]): Active | Activity (Mus musculus [14]): Active | Activity (Mus musculus [16]): Dose-dependent-effect | Activity [17]: Non-toxic | inhibition [20]: Active; Compound Nearly Abolished Il-1 Beta Secretion

IC50 [1]: > 1000 nM
SMILES: CN(C)c1cccc(-c2ccc3c(c2NC(=O)NS(=O)(=O)c2cc(C(C)(C)O)co2)CCC3)c1

IC50 [1]: 334 nM
SMILES: COC(=O)c1csc(S(=O)(=O)NC(=O)Nc2c(-c3ccc([N+](=O)[O-])cc3)ccc3c2CCC3)c1

IC50 [1]: > 1000 nM
SMILES: O=C(Nc1c(-c2ccc([N+](=O)[O-])cc2)ccc2c1CCC2)NS(=O)(=O)CCO

IC50 [1]: > 1000 nM
SMILES: Cc1ccsc1S(=O)(=O)NC(=O)Nc1c(-c2ccc([N+](=O)[O-])cc2)ccc2c1CCC2

IC50 [1]: > 1000 nM
SMILES: CC(C)c1cccc(-c2ccc3c(c2NC(=O)NS(=O)(=O)c2cc(C(C)(C)O)co2)CCC3)c1

IC50 [1]: > 1000 nM
SMILES: CC(C)(O)CS(=O)(=O)NC(=O)Nc1c(-c2ccc([N+](=O)[O-])cc2)ccc2c1CCC2

IC50 [1]: 426 nM
SMILES: CC(=O)c1ccc(S(=O)(=O)NC(=O)Nc2c(-c3ccc([N+](=O)[O-])cc3)ccc3c2CCC3)cc1

IC50 [1]: > 1000 nM
SMILES: Cn1ccc(S(=O)(=O)NC(=O)Nc2c(-c3ccc([N+](=O)[O-])cc3)ccc3c2CCC3)n1

SMILES: CC(C)(O)c1coc(S(=O)(=O)NC(=O)Nc2c3c(cc4c2CCC4)CCC3)c1
Activity (Mus musculus [22]): Active

IC50 [1]: 84 nM
SMILES: CCCCNC(=O)c1cccc(-c2ccc3c(c2NC(=O)NS(=O)(=O)c2cc(C(C)(C)O)co2)CCC3)c1

IC50 [1]: > 1000 nM
SMILES: O=C(Nc1c(-c2ccc([N+](=O)[O-])cc2)ccc2c1CCC2)NS(=O)(=O)c1ccc2ccccc2c1

IC50 [1]: 244 nM
SMILES: COCCOc1ccc(-c2ccc3c(c2NC(=O)NS(=O)(=O)c2cc(C(C)(C)O)co2)CCC3)cc1

IC50 [1]: > 1000 nM
SMILES: CN(C)Cc1ccc(S(=O)(=O)NC(=O)Nc2c(-c3ccc([N+](=O)[O-])cc3)ccc3c2CCC3)cc1

IC50 [1]: 674 nM
SMILES: O=C(Nc1c(-c2ccc([N+](=O)[O-])cc2)ccc2c1CCC2)NS(=O)(=O)c1cnn2c1OCCC2

IC50 [1]: 564 nM
SMILES: Cc1cc(F)ccc1-c1ccc2c(c1NC(=O)NS(=O)(=O)c1cc(C(C)(C)O)co1)CCC2

IC50 [1]: 32 nM
SMILES: COc1cncc(-c2ccc3c(c2NC(=O)NS(=O)(=O)c2cc(C(C)(C)O)co2)CCC3)c1

IC50 [1]: 287 nM
SMILES: CCCCOc1cccc(-c2ccc3c(c2NC(=O)NS(=O)(=O)c2cc(C(C)(C)O)co2)CCC3)c1

IC50 [1]: 357 nM
SMILES: CC(C)(O)c1coc(S(=O)(=O)NC(=O)Nc2c(-c3cccc(OC(F)(F)F)c3)ccc3c2CCC3)c1

IC50 [1]: > 1000 nM
SMILES: O=C(Nc1c(-c2ccc([N+](=O)[O-])cc2)ccc2c1CCC2)NS(=O)(=O)N1CCOCC1

IC50 [1]: > 1000 nM
SMILES: Cc1nn(C)cc1S(=O)(=O)NC(=O)Nc1c(-c2ccc([N+](=O)[O-])cc2)ccc2c1CCC2

IC50 [1]: 31 nM
SMILES: CC(C)c1cc(I)cc(C(C)C)c1NC(=O)NS(=O)(=O)c1cc(C(C)(C)O)co1

IC50 [1]: 355 nM
SMILES: O=C(Nc1c(-c2ccc([N+](=O)[O-])cc2)ccc2c1CCC2)NS(=O)(=O)c1ccccc1

IC50 [1]: 403 nM
SMILES: Nc1cccc(S(=O)(=O)NC(=O)Nc2c(-c3ccc([N+](=O)[O-])cc3)ccc3c2CCC3)c1

IC50 [1]: > 1000 nM
SMILES: Cc1ccc(S(=O)(=O)NC(=O)Nc2c(-c3ccc([N+](=O)[O-])cc3)ccc3c2CCC3)cc1

IC50 [1]: > 1000 nM
SMILES: CC(C)(O)c1coc(S(=O)(=O)NC(=O)Nc2c3c(cc(Br)c2OC2CCCC2)CCC3)c1
